Values quoted from earlier work as cited in publication PMC9516332 (Frontiers in Oncology, 2022).

Experiments:
Settings in all cases: cited from earlier work
[1] = molecular target: panel of 255 wild-type kinases (Homo sapiens, UniProt P07949)
[2] = molecular target: panel of 255 wild-type kinases (Homo sapiens, UniProt Q15375)
[3] = molecular target: panel of 255 wild-type kinases (Homo sapiens, UniProt Q9H0K1)
[4] = molecular target: panel of 255 wild-type kinases (Homo sapiens, UniProt P09619)
[5] = molecular target: panel of 255 wild-type kinases (Homo sapiens, UniProt Q96GD4)
[6] = molecular target: panel of 255 wild-type kinases (Homo sapiens, UniProt P22607)
[7] = molecular target: T1, panel of 255 wild-type kinases (Homo sapiens, UniProt P53778)
T1 sequence (P53778 1-367): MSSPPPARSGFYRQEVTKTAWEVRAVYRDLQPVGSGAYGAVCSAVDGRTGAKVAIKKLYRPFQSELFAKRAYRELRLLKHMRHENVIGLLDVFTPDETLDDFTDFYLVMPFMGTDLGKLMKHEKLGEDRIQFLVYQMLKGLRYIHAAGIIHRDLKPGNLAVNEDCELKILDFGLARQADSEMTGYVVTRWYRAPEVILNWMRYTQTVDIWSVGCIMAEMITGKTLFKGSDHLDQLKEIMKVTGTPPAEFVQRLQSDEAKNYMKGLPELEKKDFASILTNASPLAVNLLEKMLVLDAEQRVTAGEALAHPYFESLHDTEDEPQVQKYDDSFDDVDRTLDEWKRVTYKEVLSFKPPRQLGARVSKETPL

[8] = molecular target: panel of 255 wild-type kinases (Homo sapiens, UniProt P53779)
[9] = molecular target: T2, panel of 255 wild-type kinases (Homo sapiens, UniProt Q16566)
T2 sequence (Q16566 1-473): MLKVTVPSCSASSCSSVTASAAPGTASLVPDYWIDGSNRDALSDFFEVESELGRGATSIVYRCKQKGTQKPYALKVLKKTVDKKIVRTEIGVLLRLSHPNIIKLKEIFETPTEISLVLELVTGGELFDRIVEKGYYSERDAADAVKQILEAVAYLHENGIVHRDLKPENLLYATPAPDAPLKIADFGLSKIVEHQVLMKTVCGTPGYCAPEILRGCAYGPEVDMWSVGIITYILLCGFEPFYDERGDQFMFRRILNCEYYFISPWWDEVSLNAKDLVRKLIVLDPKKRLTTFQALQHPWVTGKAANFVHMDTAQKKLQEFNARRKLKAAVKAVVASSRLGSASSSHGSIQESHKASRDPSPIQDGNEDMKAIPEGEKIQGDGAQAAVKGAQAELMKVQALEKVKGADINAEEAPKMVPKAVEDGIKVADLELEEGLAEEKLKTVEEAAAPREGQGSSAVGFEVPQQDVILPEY

[10] = molecular target: panel of 255 wild-type kinases (Homo sapiens, UniProt Q16654)
[11] = molecular target: panel of 255 wild-type kinases (Homo sapiens, UniProt Q8IY84)
[12] = molecular target: panel of 255 wild-type kinases (Homo sapiens, UniProt Q8IU85)

In the case of COc1cc(N2CCC(N3CCN(C)CC3)CC2)ccc1Nc1ncc(Cl)c(Nc2ccccc2P(C)(C)=O)n1 [brigatinib], the “%-inhibition at 1 µmol/L, RET” value [1] is listed as 96%, the “%-inhibition at 1 µmol/L, EPHA7” value [2] is listed as 21% and the “%-inhibition at 1 µmol/L, QIK” value [3] is listed as 100%. The “%-inhibition at 1 µmol/L, PDGFRβ” value [4] was 94%, the “%-inhibition AurB” value [5] was 46% and the “%-inhibition at 1 µmol/L, FGFR3” value [6] was 93%. The “%-inhibition, p38γ” value [7] was 3%, the “%-inhibition at 1 µmol/L, JNK3” value [8] was 52% and the “%-inhibition CaMK4” value [9] was 13%. The “%-inhibition at 1 µmol/L, PDHK4” value [10] was 5%, the “%-inhibition, NIM1K” value [11] was 3% and the “%-inhibition CaMK1δ” value [12] was 62%.
